Laboratory results published in US12398111B2, “Triazine compounds and pharmaceutical use thereof” (Japan Tobacco Inc., priority 2014, dated 2025).

Biological target: T1, human mPGES-1 (Homo sapiens, UniProt O14684)
T1 construct: made in house; host or cells: FreeStyle CHO-S cells (Chinese hamster ovary), transient transfection with pcDNA3.1(+)/human mPGES-1; microsome fraction used
T1 sequence (O14684 1-152): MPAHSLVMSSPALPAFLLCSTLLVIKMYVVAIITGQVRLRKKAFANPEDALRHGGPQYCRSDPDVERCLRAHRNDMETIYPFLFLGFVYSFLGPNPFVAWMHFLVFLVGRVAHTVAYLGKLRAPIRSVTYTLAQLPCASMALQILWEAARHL
Test: Evaluation of human mPGES-1 enzyme inhibitory activity (PGE2 measured by HTRF, microsome fraction of CHO-S cells expressing human mPGES-1)
Format: biochemical
Conditions: IC50 value; microsome fraction of CHO-S cells expressing human mPGES-1, PGE2 by HTRF
Procedure, shortened: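 Enzyme source: microsomes from CHO-S cells transfected with human mPGES-1 and cultured 48 hr, diluted to 5 μg/mL protein in reduced GSH (12.5 mmol/L KPB solution). Test articles were in 0.1 mol/L potassium phosphate pH 7.4, final DMSO 2% (v/v). PGE2 formed was quantified by HTRF.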

| Compound | IC50 [nM] |
| --- | --- |
| CC(C)COc1ccc(-c2nc(O)nc(-c3cc(CNC(=O)C(C)(C)C(F)(F)F)ccc3Cl)n2)cc1 [Example 1-109, N-{4-chloro-3-[4-hydroxy-6-(4-isobutoxyphenyl)-1,3,5-triazin-2-yl]benzyl}-3,3,3-trifluoro-2,2-dimethylpropionamide] | 2.5 |
| C[C@H](Oc1ccc(-c2nc(O)nc(-c3cc(CNC(=O)C(C)(C)C(F)(F)F)ccc3Cl)n2)cc1)C1CC1 [Example 1-184, N-(4-chloro-3-{4-[4-((S)-1-cyclopropylethoxy)phenyl]-6-hydroxy-1,3,5-triazin-2-yl}benzyl)-3,3,3-trifluoro-2,2-dimethylpropionamide] | 1.9 |
| CC(C(=O)NCc1ccc(Cl)c(-c2nc(O)nc(-c3ccc(OCC4CC4)cc3)n2)c1)(C(F)(F)F)C(F)(F)F [Example 1-169, N-{4-chloro-3-[4-(4-cyclopropylmethoxyphenyl)-6-hydroxy-1,3,5-triazin-2-yl]benzyl}-3,3,3-trifluoro-2-methyl-2-trifluoromethylpropionamide] | 2 |
| CO[C@](C)(C(=O)NCc1ccc(Cl)c(-c2nc(O)nc(-c3ccc(Cl)c(C)c3)n2)c1)C(F)(F)F [Example 1-136, (R)—N-{4-chloro-3-[4-(4-chloro-3-methylphenyl)-6-hydroxy-1,3,5-triazin-2-yl]benzyl}-3,3,3-trifluoro-2-methoxy-2-methylpropionamide] | 0.5 |
| Cc1ccc(-c2nc(O)nc(-c3cc(CNC(=O)C(C)(C)C(F)(F)F)ccc3Cl)n2)cc1C [Example 1-150, N-{4-chloro-3-[4-(3,4-dimethylphenyl)-6-hydroxy-1,3,5-triazin-2-yl]benzyl}-3,3,3-trifluoro-2,2-dimethylpropionamide] | 0.4 |
| O=C(NCc1ccc(Cl)c(-c2nc(O)nc(-c3ccc(C(F)(F)F)cc3)n2)c1)C1CCCCC1 [Example 1-29] | 1.1 |
| CCc1ccc(C#Cc2ccc(-c3nc(O)nc(-c4c(OCc5cccc(C)n5)cccc4C(F)(F)F)n3)cc2)cc1 [Example 2-128] | 13 |
| Oc1nc(-c2ccc(C#CC3CCCCC3)cc2)nc(-c2c(Cl)cccc2OCc2ccccn2)n1 [Example 2-76] | 5.8 |
| COc1c(CNC(C)=O)ccc(Cl)c1-c1nc(O)nc(-c2ccc(C(F)(F)F)cc2)n1 [Example 3-5] | 341 |
| CC(C)(C)COc1ccc(-c2nc(O)nc(-c3cc(CO)ccc3Cl)n2)cc1 [Example 1-187] | 5.3 |
| CC1(C)CCC(Oc2ccc(-c3nc(O)nc(-c4c(Cl)cccc4OCc4ccccn4)n3)cc2)CC1 [Example 2-84] | 17 |
| CCC1(CC)CN(Cc2ccc(Cl)c(-c3nc(O)nc(-c4ccccc4)n3)c2)C1=O [Example 1-251] | 18 |
| CC(C)(C)c1cccc(-c2nc(O)nc(-c3cc(CNC(=O)C(C)(C)C(F)(F)F)ccc3Cl)n2)c1 [Example 1-92] | 0.5 |
| Cc1cc(C(F)(F)F)ccc1-c1nc(O)nc(-c2c(C)cccc2C)n1 [Example 2-3] | 14700 |
| O=C(NCc1ccc(Cl)c(-c2nc(O)nc(-c3ccccc3)n2)c1)C1(CO)CCCC1 [Example 1-254] | 30 |
| CCC[C@H](C)Oc1ccc(-c2nc(O)nc(-c3cc(CNC(=O)C(C)(C)C(F)(F)F)ccc3Cl)n2)cc1 [Example 1-155] | 3.5 |
| CO[C@@](C)(C(=O)N(C)Cc1ccc(Cl)c(-c2nc(O)nc(-c3ccccc3)n2)c1)C(F)(F)F [Example 1-243] | 120 |
| Cc1cc(Cl)c(-c2nc(O)nc(-c3ccc(OCC4CC4)cc3)n2)cc1CNC(=O)C(C)(C)C(F)(F)F [Example 3-17] | 0.8 |
| Cc1cccc(C)c1-c1nc(O)nc(-c2ccc(OC3CCCCC3)cc2)n1 [Example 2-46] | 494 |
| CCOc1cccc(-c2nc(O)nc(-c3cc(CNC(=O)C(C)(C)C)ccc3Cl)n2)c1 [Example 1-62] | 1 |
| Cc1cc(-c2nc(O)nc(-c3cc(CNC(=O)C(C)(C)C(F)(F)F)ccc3Cl)n2)ccc1C(F)(F)F [Example 1-147] | 0.8 |

| Compound | IC50 [nM] |
| --- | --- |
| CC(C)Cc1ccc(-c2nc(O)nc(-c3cc(CN(C)C(=O)C(C)(C)C(F)(F)F)ccc3Cl)n2)cc1 [Example 1-206] | 14 |
| Oc1nc(-c2ccc(C(F)(F)F)cc2)nc(-c2c(Cl)cccc2OCc2ccccc2)n1 [Example 2-32] | 14 |
| Oc1nc(-c2ccc(C#Cc3ccccc3)cc2)nc(-c2c(Cl)cccc2OCc2ccccn2)n1 [Example 2-80] | 1.6 |
| COc1ccccc1C#Cc1ccc(-c2nc(O)nc(-c3c(OCc4cccc(C)n4)cccc3C(F)(F)F)n2)cc1 [Example 2-109] | 2.8 |
| Cc1ccc(COc2cccc(Cl)c2-c2nc(O)nc(-c3ccc(C(F)(F)F)cc3)n2)cc1 [Example 2-56] | 18 |
| CC(=O)NCc1ccc(Cl)c(-c2nc(O)nc(-c3ccc(C(F)(F)F)cc3)n2)c1C [Example 3-7] | 19 |
| CN(C)C(=O)CCc1ccc(Cl)c(-c2nc(O)nc(-c3ccc(OCC(C)(C)C)cc3)n2)c1 [Example 1-218] | 70 |
| COc1ccc(Cl)c(-c2nc(O)nc(-c3ccc(C(F)(F)F)cc3)n2)c1 [Example 1-6] | 163 |
| Oc1nc(-c2ccc(C#CC3CCCC3)cc2)nc(-c2c(Cl)cccc2OCc2ccccn2)n1 [Example 2-81] | 2.7 |
| CC(C)(C(=O)NCc1ccc(Cl)c(-c2nc(O)nc(-c3ccc(OCC4CCC4)cc3)n2)c1)C(F)(F)F [Example 1-116] | 2 |
| Cc1cccc(COc2cccc(C(F)(F)F)c2-c2nc(O)nc(-c3ccc(C#Cc4ccccc4)nc3)n2)n1 [Example 2-99] | 1.7 |
| Cc1ccccc1COc1cccc(Cl)c1-c1nc(O)nc(-c2ccc(C(F)(F)F)cc2)n1 [Example 2-53] | 11 |
| Cc1cccc(C)c1-c1nc(O)nc(-c2ccc(Cl)cc2)n1 [Example 2-25] | 249 |
| O=C(NCc1ccc(Cl)c(-c2nc(O)nc(-c3ccccc3)n2)c1)C1CCC1 [Example 1-66] | 4.1 |
| Oc1nc(-c2ccc(C#Cc3ccccc3)cc2)nc(-c2c(OCc3ccc(Cl)cn3)cccc2C(F)(F)F)n1 [Example 2-112] | 5.9 |
| CC(C)COCc1ccc(Cl)c(-c2nc(O)nc(-c3ccc(C#CC4CCCCC4)cc3)n2)c1 [Example 1-219] | 41 |
| Cc1c(CNC(=O)C(C)(C)C)ccc(Cl)c1-c1nc(O)nc(-c2ccc(C(F)(F)F)cc2)n1 [Example 3-8] | 1 |
| Oc1nc(-c2ccc(C#CC3CCCCC3)cc2)nc(-c2c(Cl)cccc2OCc2ccc(C(F)(F)F)cn2)n1 [Example 2-83] | 51 |
| CCOc1c(C)ccc(Cl)c1-c1nc(O)nc(-c2ccc(C(F)(F)F)cc2)n1 [Example 3-4] | 202 |
| Cc1cccc(-c2nc(O)nc(-c3cc(CNC(=O)C(C)(C)C(F)(F)F)ccc3Cl)n2)c1 [Example 1-111] | 1.2 |

Test system: prostaglandins in guinea pig secondary aqueous humor
Test: Effect on prostaglandin composition in guinea pig aqueous humor (instillation of 0.003% ophthalmic solution, LC/MS/MS)
Format: in vivo, Hartley male guinea pig
Conditions: 24 hr after instillation of 0.003% ophthalmic solution
Protocol: A test article was dissolved in saline containing 0.5% polysorbate80 (Fluka) and 0.003% ophthalmic solution (pH 7.0-8.0) was prepared. The test article was administered to Hartley male guinea pig by instillation of 20 μL thereof to one eye by using a micropipette. After instillation, the lacrimal part was lightly fixed by gently pressing the lower eyelid for about 15 seconds. The opposite eye was treated in the same manner. To the vehicle group was administered the medium (0.5% polysorbate-containing saline) by a method similar to that for the test article. After 23 hr from the instillation, Mydrin P (registered trade mark) 0.5% ophthalmic solution (Santen Pharmaceutical Co., Ltd., general name: tropicamide/phenylephrine hydrochloride) was dropwisely added by one drop to the both eyes of a guinea pig to cause mydriasis. The guinea pig was anesthetized with Escain (registered trade mark) inhalation anesthetics (Pfizer Inc., general name: isoflurane), the cornea of the both eyes was tapped with a 30G injection needle, and the leaked aqueous humor (primary aqueous humor) was collected. One hour later (24 hr after instillation), the guinea pig was anesthetized again with isoflurane, and the secondary aqueous humor was collected in the same manner. The concentration of prostaglandins in the secondary aqueous humor obtained from each group (4 guinea pigs, 8 eyes) was measured by the LC/MS/MS system (Ultra high performance liquid chromatography: Nexera (registered trademark) manufactured by Shimadzu Corporation, mass spectrometer: […]), and the concentration ratio of each prostaglandin concentration relative to the total of all prostaglandin concentrations was calculated.

| Compound | 6-keto-PGF1α (%) | PGD2 (%) | PGE2 (%) | PGF2α (%) | TXB2 (%) |
| --- | --- | --- | --- | --- | --- |
| CC(C)COc1ccc(-c2nc(O)nc(-c3cc(CNC(=O)C(C)(C)C(F)(F)F)ccc3Cl)n2)cc1 [Example 1-109, N-{4-chloro-3-[4-hydroxy-6-(4-isobutoxyphenyl)-1,3,5-triazin-2-yl]benzyl}-3,3,3-trifluoro-2,2-dimethylpropionamide] | 37.5 | 18.9 | 29.5 | 14.1 | 0.1 |
| C[C@H](Oc1ccc(-c2nc(O)nc(-c3cc(CNC(=O)C(C)(C)C(F)(F)F)ccc3Cl)n2)cc1)C1CC1 [Example 1-184, N-(4-chloro-3-{4-[4-((S)-1-cyclopropylethoxy)phenyl]-6-hydroxy-1,3,5-triazin-2-yl}benzyl)-3,3,3-trifluoro-2,2-dimethylpropionamide] | 21.2 | 10.7 | 57 | 10.3 | 0.8 |
| CC(C(=O)NCc1ccc(Cl)c(-c2nc(O)nc(-c3ccc(OCC4CC4)cc3)n2)c1)(C(F)(F)F)C(F)(F)F [Example 1-169, N-{4-chloro-3-[4-(4-cyclopropylmethoxyphenyl)-6-hydroxy-1,3,5-triazin-2-yl]benzyl}-3,3,3-trifluoro-2-methyl-2-trifluoromethylpropionamide] | 40.3 | 17 | 28.7 | 13.5 | 0.5 |
| CO[C@](C)(C(=O)NCc1ccc(Cl)c(-c2nc(O)nc(-c3ccc(Cl)c(C)c3)n2)c1)C(F)(F)F [Example 1-136, (R)—N-{4-chloro-3-[4-(4-chloro-3-methylphenyl)-6-hydroxy-1,3,5-triazin-2-yl]benzyl}-3,3,3-trifluoro-2-methoxy-2-methylpropionamide] | 17.3 | 7.4 | 66.7 | 7.9 | 0.7 |
| Cc1ccc(-c2nc(O)nc(-c3cc(CNC(=O)C(C)(C)C(F)(F)F)ccc3Cl)n2)cc1C [Example 1-150, N-{4-chloro-3-[4-(3,4-dimethylphenyl)-6-hydroxy-1,3,5-triazin-2-yl]benzyl}-3,3,3-trifluoro-2,2-dimethylpropionamide] | 14 | 8 | 69 | 8.9 | 0.2 |
